Experimental data as given in PubChem BioAssay (NCI).
“And” between values parts separate entries of the source, which are not always exact repeats. Equal values may be shown once.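 Assay format: 96-well plates, 48-hour exposure. At the GI50, growth is halved. TGI marks complete inhibition of growth.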

Legend:
Assay in all cases: NCI anticancer screen, dose series, 48 h
K-562 leukemia = system: K-562 leukemia
NCI-H460 lung = system: NCI-H460 lung
SW-620 colon = system: SW-620 colon
CAKI-1 renal = system: CAKI-1 renal
UACC-62 melanoma = system: UACC-62 melanoma
UO-31 renal = system: UO-31 renal
SNB-19 CNS = system: SNB-19 CNS
HT29 colon = system: HT29 colon
SN12C renal = system: SN12C renal
SF-268 CNS = system: SF-268 CNS

SMILES	TGI (K-562 leukemia)	TGI (NCI-H460 lung)	TGI (SW-620 colon)	TGI (CAKI-1 renal)	TGI (UACC-62 melanoma)	TGI (UO-31 renal)	TGI (SNB-19 CNS)	TGI (HT29 colon)	TGI (SN12C renal)	TGI (SF-268 CNS)	GI50 (K-562 leukemia)	GI50 (NCI-H460 lung)	GI50 (SW-620 colon)	GI50 (CAKI-1 renal)	GI50 (UACC-62 melanoma)	GI50 (UO-31 renal)	GI50 (SNB-19 CNS)	GI50 (HT29 colon)	GI50 (SN12C renal)	GI50 (SF-268 CNS)
COc1cc([N+](=O)[O-])c(S(=O)(=O)O)cc1NS(=O)(=O)c1ccc(C)cc1	> 100 µM	> 100 µM	> 100 µM	> 100 µM	> 100 µM	> 100 µM	> 100 µM	> 100 µM	> 100 µM	> 100 µM										
Cc1ccc(NC(=O)CC/C(CC(=O)C(C)(C)C)=N/NC(=O)C(N)=O)cc1C	> 100 µM	> 100 µM	> 100 µM	> 100 µM	> 100 µM	> 100 µM	> 100 µM	> 100 µM	> 100 µM	> 100 µM										
CC1=CC[C@@H]2C(C)(C)C(=O)CC[C@@]2(C)[C@@H]1COc1ccc2ccc(=O)oc2c1	88.7 µM	79.7 µM	> 100 µM	80.8 µM	23.5 µM	34.9 µM	> 100 µM	> 100 µM	> 100 µM	> 100 µM	7.02 µM	21.8 µM	24.9 µM	9.5 µM	5.22 µM	8.15 µM	32.9 µM	23.8 µM	27.3 µM	23.3 µM
NC(N)=NS(=O)(=O)c1ccc(Nc2c3ccccc3nc3c(C(=O)N4CCN(CCO)CC4)cccc23)cc1	> 100 µM	> 100 µM	> 100 µM	> 100 µM	> 100 µM	> 100 µM	> 100 µM	> 100 µM	> 100 µM	> 100 µM										
Cc1nc2ccccc2c(=O)n1/N=C(\N=Nc1cc(Cl)ccc1Cl)c1cccc(-c2ccco2)c1	> 10 µM	> 100 µM	> 100 µM	> 100 µM	> 100 µM	> 100 µM	> 100 µM	> 100 µM	> 100 µM	> 100 µM										
Cc1onc(-c2c(F)cccc2Cl)c1-c1ncc(-c2ccc(Cl)cc2)o1	> 100 µM	> 100 µM	> 100 µM	> 100 µM	> 100 µM	> 100 µM	> 100 µM	> 100 µM	> 100 µM	> 100 µM	4.35 µM	3.18 µM	4.35 µM	4.7 µM	2.7 µM	5.47 µM	6.59 µM	3.89 µM	5.34 µM	7.3 µM
CNC(=S)N/N=C1\CC(c2ccccc2)Oc2ccccc21 (stereo not drawn)	> 100 µM	> 100 µM	> 100 µM	> 100 µM	> 100 µM	> 100 µM	> 100 µM	> 100 µM	> 100 µM	> 100 µM										
O=C(Cn1c(=O)c(-c2ccccc2)nc2ccccc21)c1ccc(Cl)cc1	> 100 µM	> 100 µM	> 100 µM	> 100 µM	> 100 µM	> 100 µM	> 100 µM	> 100 µM	> 100 µM	> 100 µM	> 100 µM	75.6 µM	> 100 µM	67.5 µM	> 100 µM	80.8 µM	42.2 µM	41.7 µM	48.6 µM	> 100 µM
C[C@@H](C1CCC2C3C(=CC(=O)[C@@]21C)[C@H](C)[C@]1(CCC(=O)O1)C1OC31)[C@H]1C[C@]2(C)O[C@@](C)(O1)OC2(C)C (stereo partly drawn)	> 100 µM	> 100 µM	> 100 µM	> 100 µM	> 100 µM	> 100 µM	> 100 µM	> 100 µM	> 100 µM	> 100 µM										
CCOC(=O)C1=C(C)NC2SC(=O)/C(=C\c3ccccc3Cl)N2C1c1ccccc1 (stereo not drawn)	> 100 µM	> 100 µM	> 100 µM	> 100 µM	> 100 µM	> 100 µM	> 100 µM	> 100 µM	> 100 µM	> 100 µM	> 100 µM	> 100 µM	> 100 µM	> 100 µM	> 100 µM	> 100 µM	> 100 µM	> 100 µM	> 100 µM	> 100 µM
N=CCCN(CCC=N)c1ccc(/C=C2\CN(NC(=O)c3ccc(Cl)cc3)C(c3ccccc3)=N2)cc1	> 100 µM	> 100 µM	30.6 µM	> 100 µM	> 100 µM	> 100 µM	> 100 µM	> 100 µM	> 100 µM	> 100 µM										
COc1cc2ccccc2c2cc([N+](=O)[O-])oc12	> 38.9 µM	1.06 µM	15 µM	> 100 µM	2.36 µM	3.1 µM	> 55.4 µM	21.9 µM	> 48.7 µM	> 27.1 µM										
Cc1cc(=O)n(-c2ccccc2)c(=O)o1	> 100 µM	> 100 µM	> 100 µM	> 100 µM	> 100 µM	> 100 µM	> 100 µM	> 100 µM	> 100 µM	> 100 µM										
O=C(CC(=O)c1ccc([N+](=O)[O-])cc1)C(=O)Nc1nccs1	> 100 µM	> 100 µM	> 100 µM	> 100 µM	> 100 µM	> 100 µM	> 100 µM	> 100 µM	> 100 µM	> 100 µM										
NC(C/[N+]([O-])=N/O)C(=O)O (stereo not drawn)	> 419 µM	> 78.3 µM and > 100 µM and 223 µM	> 100 µM and 417 µM	> 100 µM and 102 µM	> 100 µM and 81.9 µM	> 100 µM and 235 µM	> 100 µM and 268 µM	> 395 µM	> 464 µM	> 482 µM	29.5 µM and 11.2 µM and 15 µM		9.22 µM and 19.7 µM and 15.1 µM	16.6 µM and 32.2 µM and 4.52 µM	6.05 µM and 7.49 µM and 3.12 µM	5.55 µM and 2.44 µM and 2.13 µM	0.595 µM and 5.93 µM and 1.36 µM		14.6 µM and > 100 µM and 10.5 µM	6.55 µM and 2.88 µM and 5.56 µM
